Source: ChEMBL document CHEMBL3217615, “Novel 3,5-bis(arylidiene)-4-piperidone based monocarbonyl analogs of curcumin: anticancer activity evaluation and mode of action study” (2014)

Legend:
Format in all cases: functional
ACHN [1] = assay: Growth inhibition of human ACHN cells after 48 hrs by sulforhodamine B assay; conditions: for CC50: read-out: LC50 (the source's name)
MDA-MB-435 = assay: Growth inhibition of human MDA-MB-435 cells assessed as cell growth at 10^-8 M after 48 hrs by sulforhodamine B assay; conditions: MDA-MB-435, 48 h; for growth at 0.01 µM: read-out: Activity; for TGI: read-out: pTGI (converted)
PC-3 = assay: Growth inhibition of human PC3 cells after 48 hrs by sulforhodamine B assay; conditions: PC-3, 48 h; for CC50: read-out: LC50 (the source's name)
SK-OV-3 = assay: Growth inhibition of human SKOV3 cells after 48 hrs by sulforhodamine B assay; conditions: SK-OV-3, 48 h; for CC50: read-out: LC50 (the source's name)
NCI-H460 [2] = assay: Growth inhibition of human NCI-H460 cells assessed as cell growth at 10^-7 M after 48 hrs by sulforhodamine B assay; conditions: NCI-H460, 48 h, read-out: Activity
MCF7 [3] = assay: Growth inhibition of human MCF7 cells assessed as cell growth at 10^-8 M after 48 hrs by sulforhodamine B assay; conditions: MCF7, 48 h; for growth at 0.01 µM: read-out: Activity; for TGI: read-out: pTGI (converted)
SF-268 = assay: Growth inhibition of human SF268 cells assessed as cell growth at 10^-4 M after 48 hrs by sulforhodamine B assay; conditions: SF-268, 48 h, read-out: Activity
[4] = Growth inhibition of human MOLT4 cells assessed as cell growth at 10^-8 M after 48 hrs by sulforhodamine B assay; conditions: MOLT-4, 48 h; for growth at 0.01 µM: read-out: Activity; for CC50: read-out: pLC50 (the source's name) (converted); for TGI: read-out: pTGI (converted)
COLO 205 [5] = assay: Induction of apoptosis in human COLO205 cells assessed as necrotic apoptosis cells level at 10 uM after 24 hrs by Annexin V/propidium iodide staining-based fluorescence microscopy
[6] = Growth inhibition of human UACC62 cells after 48 hrs by sulforhodamine B assay; conditions: UACC-62, 48 h; for CC50: read-out: LC50 (the source's name)
ACHN [7] = assay: Growth inhibition of human ACHN cells assessed as cell growth at 10^-6 M after 48 hrs by sulforhodamine B assay; conditions: read-out: Activity
[8] = Growth inhibition of human SF539 cells assessed as cell growth at 10^-6 M after 48 hrs by sulforhodamine B assay; conditions: SF-539, 48 h, read-out: Activity
HOP-62 = assay: Growth inhibition of human HOP62 cells assessed as cell growth at 10^-6 M after 48 hrs by sulforhodamine B assay; conditions: HOP-62, 48 h, read-out: Activity
COLO 205 [9] = assay: Induction of apoptosis in human COLO205 cells assessed as early apoptosis cells level at 10 uM after 24 hrs by Annexin V/propidium iodide staining-based fluorescence microscopy
M14 = assay: Growth inhibition of human M14 cells after 48 hrs by sulforhodamine B assay; conditions: M14, 48 h; for CC50: read-out: LC50 (the source's name)
[10] = Growth inhibition of human SF295 cells assessed as cell growth at 10^-4 M after 48 hrs by sulforhodamine B assay; conditions: SF-295, 48 h, read-out: Activity
HL-60(TB) = assay: Growth inhibition of human HL-60(TB) cells assessed as cell growth at 10^-4 M after 48 hrs by sulforhodamine B assay; conditions: HL-60, 48 h, read-out: Activity
A498 = assay: Growth inhibition of human A498 cells assessed as cell growth at 10^-4 M after 48 hrs by sulforhodamine B assay; conditions: A498, 48 h, read-out: Activity
[11] = Growth inhibition of human UACC257 cells after 48 hrs by sulforhodamine B assay; conditions: UACC-257, 48 h; for CC50: read-out: LC50 (the source's name)
SNB-19 [12] = assay: Growth inhibition of human SNB19 cells assessed as cell growth at 10^-7 M after 48 hrs by sulforhodamine B assay; conditions: SNB-19, 48 h, read-out: Activity
[13] = Growth inhibition of human BT549 cells after 48 hrs by sulforhodamine B assay; conditions: BT-549, 48 h
[14] = Growth inhibition of human UO31 cells assessed as cell growth at 10^-4 M after 48 hrs by sulforhodamine B assay; conditions: UO-31, 48 h, read-out: Activity
RPMI-8226 = assay: Growth inhibition of human RPMI8226 cells assessed as cell growth at 10^-7 M after 48 hrs by sulforhodamine B assay; conditions: RPMI-8226, 48 h, read-out: Activity
NCI-H226 = assay: Growth inhibition of human NCI-H226 cells assessed as cell growth at 10^-6 M after 48 hrs by sulforhodamine B assay; conditions: NCI-H226, 48 h, read-out: Activity
[15] = Growth inhibition of human OVCAR5 cells assessed as cell growth at 10^-7 M after 48 hrs by sulforhodamine B assay; conditions: OVCAR-5, 48 h, read-out: Activity
Malme-3M = assay: Growth inhibition of human MALME-3M cells assessed as cell growth at 10^-7 M after 48 hrs by sulforhodamine B assay; conditions: read-out: Activity
MCF7 [16] = assay: Growth inhibition of human MCF7 cells assessed as cell growth at 10^-7 M after 48 hrs by sulforhodamine B assay; conditions: MCF7, 48 h, read-out: Activity
A549 [17] = assay: Growth inhibition of human A549/ATCC cells assessed as cell growth at 10^-7 M after 48 hrs by sulforhodamine B assay; conditions: A549, 48 h, read-out: Activity
NCI-H460 [18] = assay: Growth inhibition of human NCI-H460 cells after 48 hrs by sulforhodamine B assay; conditions: NCI-H460, 48 h; for CC50: read-out: LC50 (the source's name)
HCT-116 [19] = assay: Growth inhibition of human HCT116 cells assessed as cell growth at 10^-4 M after 48 hrs by sulforhodamine B assay; conditions: HCT-116, 48 h, read-out: Activity
CAKI-1 = assay: Growth inhibition of human CAKI-1 cells assessed as cell growth at 10^-4 M after 48 hrs by sulforhodamine B assay; conditions: CAKI-1, 48 h, read-out: Activity
[20] = Growth inhibition of human SF539 cells after 48 hrs by sulforhodamine B assay; conditions: SF-539, 48 h; for CC50: read-out: LC50 (the source's name)
HCT-116 [21] = assay: Growth inhibition of human HCT116 cells assessed as cell growth at 10^-7 M after 48 hrs by sulforhodamine B assay; conditions: HCT-116, 48 h, read-out: Activity
SNB-19 [22] = assay: Growth inhibition of human SNB19 cells assessed as cell growth at 10^-6 M after 48 hrs by sulforhodamine B assay; conditions: SNB-19, 48 h, read-out: Activity
A549 [23] = assay: Growth inhibition of human A549/ATCC cells assessed as cell growth at 10^-4 M after 48 hrs by sulforhodamine B assay; conditions: A549, 48 h, read-out: Activity

For O=C1/C(=C/c2ccc(Cl)cc2Cl)CN(S(=O)(=O)c2ccccc2)C/C1=C\c1ccc(Cl)cc1Cl, the GI50 (ACHN [1]) was 0.874 µM, the TGI (ACHN [1]) was 4.56 µM and the CC50 (ACHN [1]) was > 100 µM. For the same molecule, the GI50 (MDA-MB-435) was 0.977 µM, the LC50 (MDA-MB-435) was > 100 µM and the growth at 0.01 µM (MDA-MB-435) was 90%. It also gave a TGI (MDA-MB-435) of 3.24 µM, a GI50 (PC-3) of 0.291 µM and a TGI (PC-3) of 1.03 µM. The CC50 (PC-3) was > 100 µM, the GI50 (SK-OV-3) was 7.95 µM and the TGI (SK-OV-3) was > 100 µM. The CC50 (SK-OV-3) was > 100 µM, the growth at 0.1 µM (NCI-H460 [2]) was 98% and the GI50 (MCF7 [3]) was 0.302 µM. For the same molecule, the LC50 (MCF7 [3]) was > 100 µM, the growth at 0.01 µM (MCF7 [3]) was 96% and the TGI (MCF7 [3]) was 100 µM. It also gave a growth at 100 µM (SF-268) of 4%, a GI50 [4] of 0.589 µM and a growth at 0.01 µM [4] of 104%. For the same molecule, the CC50 [4] was > 100 µM, the TGI [4] was 9.12 µM and the Activity (COLO 205 [5]) was 1%. It also gave a GI50 [6] of 0.804 µM, a TGI [6] of 2.31 µM and a CC50 [6] of 5.81 µM. For the same molecule, the growth at 1 µM (ACHN [7]) was 47%, the growth at 1 µM [8] was 22% and the growth at 1 µM (HOP-62) was 5%. The Activity (COLO 205 [9]) was 52%, the GI50 (M14) was 3.66 µM and the TGI (M14) was > 100 µM. For the same molecule, the CC50 (M14) was > 100 µM, the growth at 100 µM [10] was -11% and the growth at 100 µM (HL-60(TB)) was -13%. The growth at 100 µM (A498) was -8%, the GI50 [11] was 4.08 µM and the TGI [11] was > 100 µM. The CC50 [11] was > 100 µM, the growth at 0.1 µM (SNB-19 [12]) was 89% and the GI50 [13] was 0.987 µM. For the same molecule, the LC50 [13] was > 100 µM, the TGI [13] was 4.21 µM and the growth at 100 µM [14] was -60%. The growth at 0.1 µM (RPMI-8226) was 91%, the growth at 1 µM (NCI-H226) was 52% and the growth at 0.1 µM [15] was 94%. The growth at 0.1 µM (Malme-3M) was 129%, the growth at 0.1 µM (MCF7 [16]) was 84% and the growth at 0.1 µM (A549 [17]) was 94%. For the same molecule, the GI50 (NCI-H460 [18]) was 0.208 µM, the TGI (NCI-H460 [18]) was 0.447 µM and the CC50 (NCI-H460 [18]) was 0.959 µM. The growth at 100 µM (HCT-116 [19]) was -76%, the growth at 100 µM (CAKI-1) was -11% and the GI50 [20] was 0.424 µM. For the same molecule, the TGI [20] was 2.07 µM, the CC50 [20] was > 100 µM and the growth at 0.1 µM (HCT-116 [21]) was 95%. For the same molecule, the growth at 1 µM (SNB-19 [22]) was 10% and the growth at 100 µM (A549 [23]) was -33%.

Work on Cc1ccc(S(=O)(=O)N2C/C(=C\c3cc(F)cc(F)c3)C(=O)/C(=C/c3cc(F)cc(F)c3)C2)cc1 yielded a GI50 (ACHN [1]) of 0.246 µM, a TGI (ACHN [1]) of 0.622 µM and a CC50 (ACHN [1]) of 2.39 µM. The GI50 (MDA-MB-435) was 0.24 µM, the LC50 (MDA-MB-435) was 3.63 µM and the growth at 0.01 µM (MDA-MB-435) was 96%. For the same molecule, the TGI (MDA-MB-435) was 0.692 µM, the GI50 (PC-3) was 0.248 µM and the TGI (PC-3) was 0.803 µM. It also gave a CC50 (PC-3) of 9.28 µM, a GI50 (SK-OV-3) of 1.84 µM and a TGI (SK-OV-3) of 5.62 µM. The CC50 (SK-OV-3) was 37.2 µM, the growth at 0.1 µM (NCI-H460 [2]) was 104% and the GI50 (MCF7 [3]) was 0.174 µM. For the same molecule, the LC50 (MCF7 [3]) was 6.92 µM, the growth at 0.01 µM (MCF7 [3]) was 89% and the TGI (MCF7 [3]) was 1.45 µM. For the same molecule, the growth at 100 µM (SF-268) was -88%, the GI50 [4] was 0.302 µM and the growth at 0.01 µM [4] was 100%. For the same molecule, the CC50 [4] was > 100 µM, the TGI [4] was 2.09 µM and the Activity (COLO 205 [5]) was 3%. For the same molecule, the GI50 [6] was 0.212 µM, the TGI [6] was 0.514 µM and the CC50 [6] was 1.62 µM. The growth at 1 µM (ACHN [7]) was -26%, the growth at 1 µM [8] was 61% and the growth at 1 µM (HOP-62) was 93%. The Activity (COLO 205 [9]) was 30%, the GI50 (M14) was 0.359 µM and the TGI (M14) was 1.4 µM. The CC50 (M14) was 5.91 µM, the growth at 100 µM [10] was -75% and the growth at 100 µM (HL-60(TB)) was -23%. For the same molecule, the growth at 100 µM (A498) was -86%, the GI50 [11] was 0.939 µM and the TGI [11] was 2.9 µM. It also gave a CC50 [11] of 8.6 µM, a growth at 0.1 µM (SNB-19 [12]) of 82% and a GI50 [13] of 0.34 µM. The LC50 [13] was 3.52 µM, the TGI [13] was 0.931 µM and the growth at 100 µM [14] was -95%. For the same molecule, the growth at 0.1 µM (RPMI-8226) was 17%, the growth at 1 µM (NCI-H226) was 90% and the growth at 0.1 µM [15] was 93%. It also gave a growth at 0.1 µM (Malme-3M) of 101%, a growth at 0.1 µM (MCF7 [16]) of 62% and a growth at 0.1 µM (A549 [17]) of 93%. The GI50 (NCI-H460 [18]) was 0.828 µM, the TGI (NCI-H460 [18]) was 2.87 µM and the CC50 (NCI-H460 [18]) was 9.22 µM. The growth at 100 µM (HCT-116 [19]) was -92%, the growth at 100 µM (CAKI-1) was -57% and the GI50 [20] was 1.21 µM. For the same molecule, the TGI [20] was 2.87 µM, the CC50 [20] was 6.81 µM and the growth at 0.1 µM (HCT-116 [21]) was 89%. It also gave a growth at 1 µM (SNB-19 [22]) of -12% and a growth at 100 µM (A549 [23]) of -34%.
